This note sets out measurements from patent US10774110B2, “Rapadocins, inhibitors of equilibrative nucleoside transporter 1 and uses thereof” (The Johns Hopkins University, priority 2016, dated 2020).

Broadly, the EC50 is the midpoint of the concentration-response curve. Usually solubility stands for the concentration that dissolves in the medium under given conditions. High values mean a readily soluble substance, low ones a poorly soluble substance.

Data set [1] deals with T1, ENT1 (Homo sapiens, UniProt P62942+Q99808). In words: 3H-Thymidine uptake, potency of Rapadocin analogs (Table 2). Type of data set: cell-based. More on the design: endogenous in cells. An excerpt:
(§1) Rapadocin is a synthetic macrocycle composed of two ‘domains’—a FKBD (FKBP12 binding domain) and a peptide domain. […] The peptidic fragment can tolerate a range of modifications with varying effects on ENT1 inhibition.
Table 2 discloses the potency of various Rapadocin analogs.
Target sequence in this assay (Q99808 2-456 limits assumed): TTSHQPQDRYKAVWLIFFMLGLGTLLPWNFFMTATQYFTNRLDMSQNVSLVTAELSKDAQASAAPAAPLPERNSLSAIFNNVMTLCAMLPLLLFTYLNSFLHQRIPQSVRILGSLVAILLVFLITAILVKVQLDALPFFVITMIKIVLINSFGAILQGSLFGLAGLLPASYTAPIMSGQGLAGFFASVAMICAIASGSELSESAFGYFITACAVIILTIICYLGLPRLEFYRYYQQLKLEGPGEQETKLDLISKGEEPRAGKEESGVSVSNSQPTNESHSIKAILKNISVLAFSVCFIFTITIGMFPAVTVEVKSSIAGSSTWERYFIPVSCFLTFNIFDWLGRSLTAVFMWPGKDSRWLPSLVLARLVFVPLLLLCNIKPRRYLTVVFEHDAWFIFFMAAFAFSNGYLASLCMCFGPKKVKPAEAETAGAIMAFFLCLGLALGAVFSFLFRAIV
Target sequence in this assay (P62942 2-108 limits assumed): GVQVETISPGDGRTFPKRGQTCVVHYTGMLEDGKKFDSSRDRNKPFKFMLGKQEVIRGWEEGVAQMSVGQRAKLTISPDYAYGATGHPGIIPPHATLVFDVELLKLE

A short description of data set [2]: Stability in cell culture media. Type of data set: physicochemical. The following applies: 5 days, 37° C., 10% Fetal Bovine Serum.
Data set [3] deals with kidney ischemia reperfusion injury. The data set can be described thus: Kidney ischemia reperfusion injury mouse model. Type of data set: in vivo.
Source text: as §1
(§2) Two human and animal models have been studied to show the efficacy of Rapadocin (FIGS. 4 and 5). Under several physiological conditions, adenosine is released into the blood where it can act on adenosine receptors. Normally, this adenosine (ADO) is rapidly reabsorbed via ENT1. In the presence of Rapadocin, uptake is inhibited and ADO is able to produce enhanced signaling leading to several potentially beneficial physiological responses.

Data set [4] concerns platelet aggregation in human blood. In words: Platelet aggregation in human blood activated by ADP. The following applies: FIG. 4. Type of data set: cell-based.
Source text: as §2

The test system of data set [5] is RKO. In words: 3H-Thymidine uptake in RKO. Type of data set: cell-based, human. The source says: (§3) uptake in at least seven cell lines and is predicted to inhibit nucleoside uptake in all human cell lines (see e.g., FIG. 2 and Table 1).
The test system of data set [6] is 293T. In words: 3H-Thymidine uptake in 293T. Type of data set: cell-based, human.
Source text: as §3

In data set [7] the target is T2, FKBP12 (Homo sapiens, UniProt P62942).
T2 construct: endogenous in cells
T2 sequence (P62942 whole entry): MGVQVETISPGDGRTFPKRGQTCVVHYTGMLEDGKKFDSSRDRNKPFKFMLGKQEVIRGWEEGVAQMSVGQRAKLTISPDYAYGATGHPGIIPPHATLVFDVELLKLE
In words: Antagonism of uptake inhibition by FKBP12-binders. It counts as cell-based. As to conditions: FIG. 3. The source says: FIG. 3. Rapadocin's uptake inhibition is antagonized by FKBP12-binders Rapamycin and FK506.

In data set [8] the target is T1, ENT1. In words: 3H-Adenosine / nucleoside uptake by hENT1 (vs hENT2). It counts as cell-based. An excerpt:
FIG. 1. Rapadocin inhibits ^3H-Adenosine uptake by specifically inhibiting hENT1.
Rapadocin inhibits nucleoside
Target sequence in this assay (Q99808 whole entry, the tested form may be a part): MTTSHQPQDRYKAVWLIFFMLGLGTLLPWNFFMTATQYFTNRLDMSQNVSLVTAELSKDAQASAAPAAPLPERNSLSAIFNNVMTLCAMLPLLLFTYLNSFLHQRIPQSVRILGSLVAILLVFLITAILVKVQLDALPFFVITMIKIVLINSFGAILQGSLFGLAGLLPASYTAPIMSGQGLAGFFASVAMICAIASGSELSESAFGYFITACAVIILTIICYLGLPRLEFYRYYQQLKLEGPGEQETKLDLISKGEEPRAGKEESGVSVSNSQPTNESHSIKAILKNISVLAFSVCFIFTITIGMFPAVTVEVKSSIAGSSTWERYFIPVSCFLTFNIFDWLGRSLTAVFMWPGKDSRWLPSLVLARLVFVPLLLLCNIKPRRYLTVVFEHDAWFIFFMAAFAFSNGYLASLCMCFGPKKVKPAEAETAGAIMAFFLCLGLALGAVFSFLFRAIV
Target sequence in this assay (P62942 2-108 limits assumed): as the sequence (P62942 2-108 limits assumed) above

Data set [9] relates to HUVEC. In words: 3H-Thymidine uptake in HUVEC. It counts as cell-based, human.
Source text: FIG. 2. Rapadocin inhibits ^3H-Thymidine uptake in Human Umbilical Vein Endothelial Cells (HUVEC).
as §3

The subject of data set [10] is HeLa. The data set can be described thus: 3H-Thymidine uptake in HeLa. It counts as cell-based, human.
Source text: as §3

Data set [11] deals with A549. The data set can be described thus: 3H-Thymidine uptake in A549. It counts as cell-based, human.
Source text: as §3

The test system of data set [12] is MCF-7. The data set can be described thus: 3H-Thymidine uptake in MCF-7. It counts as cell-based, human.
Source text: as §3

Data set [13] concerns MDA MB-231. The data set can be described thus: 3H-Thymidine uptake in MDA MB-231. Type of data set: cell-based, human.
Source text: as §3

Data set [14] can be described thus: Solubility in aqueous solutions. Type of data set: physicochemical.

Where two headings read alike, the source gives them in different places.

As for `COc1ccc(CC[C@H]2OC(=O)[C@@H]3CCCCN3C(=O)C(=O)C(C)(C)COC(=O)C=CCCN(C)C(=O)[C@H](CC(C)C)N(C)C(=O)[C@@H]3CCCN3C(=O)[C@H](Cc3ccc(OCC(=O)NCCOCCOCCNC(=O)CCCCC4SCC5NC(=O)NC54)cc3)NC(=O)[C@H](c3ccccc3)NC(=O)CCC(=O)Nc3cccc2c3)cc1OC` (some centres unmarked) [JW95TyrBiotin], in data set [1], the concentration giving a half-maximal response (EC50) was 0.064 µM.

In the case of `COc1ccc(CC[C@H]2OC(=O)[C@@H]3CCCCN3C(=O)C(=O)C(C)(C)COC(=O)/C=C/CCN(C)C(=O)[C@H](CC(C)C)N(C)C(=O)[C@H]3CCCN3C(=O)[C@H](Cc3ccccc3)N(C)C(=O)[C@H](c3ccccc3)NC(=O)CCC(=O)Nc3cccc2c3)cc1OC` [Rapadocin], in [2], the resistance to degradation result is on record as “resist degradation over 5 days”. For the same compound, the tolerability in animals result in [3] (kidney ischemia model) was “safely tolerated”. In addition, the “protection against kidney ischemia reperfusion injury” value in data set [3] (mouse model, FIG. 5) is listed as “protects against kidney ischemia reperfusion injury”. The platelet aggregation result in data set [4] is given as “inhibits platelet aggregation”. Besides, the concentration for a half-maximal effect (EC50) turned out to be 11.4 nM in data set [5]; 5 nM in data set [6]; 6.4 nM in [9]; 16.3 nM in data set [10]; 6.3 nM in data set [11]; 9 nM in data set [12]. Besides, the EC50 was 41.1 nM in data set [13] and 0.00616 µM in data set [1]. The “uptake inhibition in presence of FKBP12-binders Rapamycin and FK506” value in data set [7] is “antagonized”. Moreover, the 3H-Adenosine uptake inhibition entry in [8] (FIG. 1, by specifically inhibiting hENT1) is reported as “inhibits”. Moreover, the “inhibition of nucleoside uptake by hENT1 over hENT2” value in [8] (selectivity hENT1 over hENT2, FIG. 1) is “potently and specifically inhibits”. The 3H-Thymidine uptake inhibition result in data set [9] (FIG. 2) was “inhibits”. The compound further showed a solubility in [14] not above 10 µM.

In the case of `c1ccc2sccc2c1` [Analog 95-15-8], in [1] (cells printed with uM, read-out: EC50 3H-Tymidine uptake), the EC50 was more than 1 µM.

As to `C#CCCC1(CCOc2ccc(C[C@@H]3NC(=O)[C@H](c4ccccc4)NC(=O)CCC(=O)Nc4cccc(c4)[C@@H](CCc4ccc(OC)c(OC)c4)OC(=O)C4CCCCN4C(=O)C(=O)C(C)(C)COC(=O)C=CCCN(C)C(=O)[C@H](CC(C)C)N(C)C(=O)[C@@H]4CCCN4C3=O)cc2)N=N1` (some centres unmarked) [JW95TyrDiaz], in data set [1], a half-maximal response (EC50) required 0.02 µM.
